Measurements reported in paper PMC6201084 (Antimicrobial Agents and Chemotherapy, 2018).
Values joined by “and” are separate entries in the source; they are usually repeats but may differ in a detail not shown here. Identical values can stand only once.

Key:
[1] = target: neuraminidase (NA) of influenza B/Perth/136/2015 (MUT-Y273, H273Y NA substitution) (Influenza B virus, UniProt A0A1S5RAG6, H273Y); format: biochemical
[2] = target: neuraminidase (NA) of influenza B/Singapore/GP702/2015 (MUT-N197, D197N NA substitution) (Influenza B virus, UniProt A0A1S5RAG6, D197N); format: biochemical

`CCC(CC)[C@H](NC(C)=O)[C@@H]1[C@H](O)[C@@H](C(=O)O)C[C@H]1N=C(N)N` [Peramivir, peramivir] was tested. Which “Fold difference in IC50 from corresponding wild-type value” [1] did it give?
The value was 85 fold and 80.9 ± 6.8 (85)^b fold.

And the IC50 ([1]; read-out: IC50 (nM), mean ± SD)?
The IC50 was 80.9 nM.

And the “Fold difference in IC50 from corresponding wild-type value” [2]?
Its value is 3.0 ± 0.7 (3) fold.

What about the IC50 ([2]; read-out: IC50 (nM), mean ± SD) of the same compound?
The IC50 was 3 nM.
